In ChEMBL document CHEMBL6153118, “Structure Optimization of Natural Product Catalpol to Obtain Novel and Potent Analogs against Heart Failure” (J Med Chem, 2025):
Calls of active or inactive are those of the source. No cut-off for these calls is given here.

Columns and labels:
[1] = test system: Mus musculus; experiment: Inhibition of cardiomyocyte hypertrophy in ISO-induced heart failure C57BL/6J mouse at 5 to 20 mg/kg/day, po for 14 days; type: functional, organism-based; settings: dose 5-20 mg/kg/day, time 14.0 day
[2] = Metabolic stability in mouse liver microsomes assessed as intrinsic clearance measured for 5 to 60 mins in presence of NADPH by LC-MS/MS analysis; type: ADME, Microsome; settings: time 5-60 min, read-out: CLH
[3] = test system: Mus musculus; experiment: Inhibition of cardiomyocyte hypertrophy in ISO-induced heart failure C57BL/6J mouse assessed as decrease in ratio of p-AKT to AKT levels in heart tissue administered orally daily for 14 days by Western blot analysis; type: functional, organism-based; settings: dose 5-20 mg/kg/day, route po, time 14.0 day
[4] = target: T1, CYP1A2 (Homo sapiens, UniProt P05177); experiment: Inhibition of CYP1A2 in human liver microsomes preincubated for 10 mins followed by NADPH addition measured after 10 mins by LC/MS/MS analysis relative to control; type: ADME, Microsome; settings: time 20 min
T1 sequence (P05177 whole entry): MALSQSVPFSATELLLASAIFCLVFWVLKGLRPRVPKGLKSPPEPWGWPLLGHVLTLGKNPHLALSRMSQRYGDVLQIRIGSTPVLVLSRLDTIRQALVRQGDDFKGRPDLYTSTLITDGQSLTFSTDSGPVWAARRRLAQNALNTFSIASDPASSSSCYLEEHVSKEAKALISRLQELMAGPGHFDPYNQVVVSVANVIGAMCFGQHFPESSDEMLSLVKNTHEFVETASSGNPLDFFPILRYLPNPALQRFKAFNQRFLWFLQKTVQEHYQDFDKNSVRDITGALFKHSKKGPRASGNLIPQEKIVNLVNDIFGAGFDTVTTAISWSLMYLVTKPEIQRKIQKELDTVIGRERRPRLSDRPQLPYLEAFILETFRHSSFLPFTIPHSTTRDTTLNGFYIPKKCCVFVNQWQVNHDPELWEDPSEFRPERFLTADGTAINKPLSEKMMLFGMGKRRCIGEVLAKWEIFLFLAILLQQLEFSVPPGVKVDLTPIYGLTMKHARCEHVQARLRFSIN

[5] = AUC (0 to t) in C57/6J mouse at 20 mg/kg, po measured for 24 hrs; type: ADME, organism-based; settings: in vivo
[6] = test system: Mus musculus; experiment: Cardioprotective activity in ISO-induced heart failure C57BL/6J mouse assessed as fractional shortening in heart at 20 mg/kg/day, po for 14 days by echocardiography (reference value: 24.49 +/- 1.49 %); type: functional; settings: time 14 day
[7] = test system: H9c2; experiment: Cytoprotective activity against OGD-induced myocardial ischemic injury in rat H9c2 cells assessed as cell viability at 50 uM preincubated for 12 hrs followed by exposure to OGD condition for 3 hrs by CCK8 assay (reference value: 49.23 to 50.05 %); type: functional; settings: time 15 hrs, read-out: Activity
[8] = test system: H9c2; experiment: Inhibition of cardiomyocyte hypertrophy in ISO-treated rat H9c2 cells at 50 uM preincubated for 12 hrs followed by ISO treatment for 36 hrs by FITC-Phalloidin staining based analysis; type: functional, cell-based; settings: time 48.0 hrs
[9] = test system: H9c2; experiment: Cytoprotective activity against OGD-induced myocardial ischemic injury in rat H9c2 cells assessed as decrease in ROS level at 5 to 50 uM preincubated for 12 hrs followed by exposure to OGD condition for 3 hrs by DCFH-DA probe based analysis; type: functional, cell-based; settings: dose 5-50 µM, time 15.0 hrs
[10] = test system: H9c2; experiment: Inhibition of cardiomyocyte hypertrophy in rat H9c2 cells assessed as decrease in ISO-induced ANP level at 50 uM by Western blot analysis; type: functional, cell-based
[11] = test system: Mus musculus; experiment: Inhibition of cardiomyocyte hypertrophy in ISO-induced heart failure C57BL/6J mouse assessed as decrease in Bax level in heart tissue at 5 to 20 mg/kg/day, po for 14 days by Western blot analysis; type: functional, organism-based; settings: dose 5-20 mg/kg/day, time 14.0 day
[12] = test system: H9c2; experiment: Cytoprotective activity against OGD-induced myocardial ischemic injury in rat H9c2 cells assessed as cell viability at 5 uM preincubated for 12 hrs followed by exposure to OGD condition for 3 hrs by CCK8 assay (reference value: 49.23 to 50.05 %); type: functional; settings: time 15 hrs, read-out: Activity
[13] = MRT (0 to t) in C57/6J mouse at 5 mg/kg, iv measured for 24 hrs; type: ADME, organism-based; settings: in vivo
[14] = test system: Mus musculus; experiment: Inhibition of cardiomyocyte hypertrophy in ISO-induced heart failure C57BL/6J mouse assessed as increase in Bcl-2 level in heart tissue at 5 to 20 mg/kg/day, po for 14 days by Western blot analysis; type: functional, organism-based; settings: dose 5-20 mg/kg/day, time 14.0 day
[15] = target: CYP2C19 (Homo sapiens, UniProt P33261); experiment: Inhibition of CYP2C19 in human liver microsomes preincubated for 10 mins followed by NADPH addition measured after 10 mins by LC/MS/MS analysis relative to control; type: ADME, Microsome; settings: time 20 min
[16] = MRT (0 to t) in C57/6J mouse at 20 mg/kg, po measured for 24 hrs; type: ADME, organism-based; settings: in vivo
[17] = test system: Mus musculus; experiment: Inhibition of cardiomyocyte hypertrophy in ISO-induced heart failure C57BL/6J mouse assessed as decrease in ANP level administered orally daily for 14 days by Western blot analysis; type: functional, organism-based; settings: dose 5-20 mg/kg/day, route po, time 14.0 day
[18] = Tmax in C57/6J mouse at 5 mg/kg, iv measured for 24 hrs; type: ADME, organism-based; settings: in vivo
[19] = target: Voltage-gated inwardly rectifying potassium channel KCNH2 (Homo sapiens, UniProt Q12809); experiment: Inhibition of hERG at 30 uM; type: toxicity
[20] = Toxicity in C57BL/6J mouse assessed as signs of morbidity at 400 mg/kg, po administered as single dose measured for 7 days; type: organism-based; settings: in vivo, 168 h, time 7 day
[21] = target: CYP2C9 (Homo sapiens, UniProt P11712); experiment: Inhibition of CYP2C9 in human liver microsomes preincubated for 10 mins followed by NADPH addition measured after 10 mins by LC/MS/MS analysis relative to control; type: ADME, Microsome; settings: time 20 min
[22] = test system: Mus musculus; experiment: Inhibition of cardiac fibrosis in ISO-induced heart failure C57BL/6J mouse at 5 to 20 mg/kg/day, po for 14 days; type: functional, organism-based; settings: dose 5-20 mg/kg/day, time 14.0 day
[23] = Cmax in C57/6J mouse at 20 mg/kg, po measured for 24 hrs; type: ADME, organism-based; settings: in vivo
[24] = test system: Mus musculus; experiment: Inhibition of cardiomyocyte hypertrophy in ISO-induced heart failure C57BL/6J mouse at 5 to 20 mg/kg/day, po for 14 days by WGA staining based analysis; type: functional, organism-based; settings: dose 5-20 mg/kg/day, time 14.0 day
[25] = target: CYP2D6 (Homo sapiens, UniProt P10635); experiment: Inhibition of CYP2D6 in human liver microsomes preincubated for 10 mins followed by NADPH addition measured after 10 mins by LC/MS/MS analysis relative to control; type: ADME, Microsome; settings: time 20 min
[26] = test system: Mus musculus; experiment: Inhibition of cardiomyocyte hypertrophy in ISO-induced heart failure C57BL/6J mouse assessed as decrease in GSK-3beta phosphorylation in heart tissue administered orally daily for 14 days by Western blot analysis; type: functional, organism-based; settings: dose 5-20 mg/kg/day, route po, time 14.0 day
[27] = test system: H9c2; experiment: Cytoprotective activity against OGD-induced myocardial ischemic injury in rat H9c2 cells assessed as decrease in cell death at 5 to 50 uM preincubated for 12 hrs followed by exposure to OGD condition for 3 hrs by crystal violet staining based analysis; type: functional; settings: dose 5-50 µM, time 15.0 hrs
[28] = test system: Mus musculus; experiment: Inhibition of cardiomyocyte hypertrophy in ISO-induced heart failure C57BL/6J mouse assessed as decrease in ratio of p-GSK-3beta to GSK-3beta levels in heart tissue administered orally daily for 14 days by Western blot analysis; type: functional, organism-based; settings: dose 5-20 mg/kg/day, route po, time 14.0 day

Chain of CYP2C19 (P33261 whole entry): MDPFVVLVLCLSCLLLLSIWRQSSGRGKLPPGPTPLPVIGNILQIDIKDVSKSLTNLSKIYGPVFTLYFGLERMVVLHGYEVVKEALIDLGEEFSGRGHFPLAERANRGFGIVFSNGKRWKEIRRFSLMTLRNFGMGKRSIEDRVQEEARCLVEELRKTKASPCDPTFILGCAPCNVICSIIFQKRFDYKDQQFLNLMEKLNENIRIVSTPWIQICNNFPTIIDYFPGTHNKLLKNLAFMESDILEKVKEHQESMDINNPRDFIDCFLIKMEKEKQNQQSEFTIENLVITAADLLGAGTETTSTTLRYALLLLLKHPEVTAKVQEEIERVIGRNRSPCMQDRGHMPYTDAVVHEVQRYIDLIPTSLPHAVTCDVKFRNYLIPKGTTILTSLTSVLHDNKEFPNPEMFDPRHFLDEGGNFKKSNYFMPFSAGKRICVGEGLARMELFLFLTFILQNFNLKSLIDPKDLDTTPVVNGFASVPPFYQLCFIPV
Chain of CYP2D6 (P10635 whole entry): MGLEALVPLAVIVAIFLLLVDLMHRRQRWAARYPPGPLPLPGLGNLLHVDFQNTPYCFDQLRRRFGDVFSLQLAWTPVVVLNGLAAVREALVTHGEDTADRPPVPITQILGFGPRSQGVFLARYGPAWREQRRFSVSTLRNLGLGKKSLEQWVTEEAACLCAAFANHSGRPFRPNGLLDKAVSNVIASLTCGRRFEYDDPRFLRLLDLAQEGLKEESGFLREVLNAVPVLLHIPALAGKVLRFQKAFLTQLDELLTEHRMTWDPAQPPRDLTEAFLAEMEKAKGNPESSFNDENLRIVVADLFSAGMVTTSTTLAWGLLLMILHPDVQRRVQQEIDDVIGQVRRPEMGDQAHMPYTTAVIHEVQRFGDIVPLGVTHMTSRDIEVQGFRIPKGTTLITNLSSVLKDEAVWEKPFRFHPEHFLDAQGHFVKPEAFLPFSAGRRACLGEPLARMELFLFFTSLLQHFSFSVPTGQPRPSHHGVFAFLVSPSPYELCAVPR
Chain of CYP2C9 (P11712 whole entry): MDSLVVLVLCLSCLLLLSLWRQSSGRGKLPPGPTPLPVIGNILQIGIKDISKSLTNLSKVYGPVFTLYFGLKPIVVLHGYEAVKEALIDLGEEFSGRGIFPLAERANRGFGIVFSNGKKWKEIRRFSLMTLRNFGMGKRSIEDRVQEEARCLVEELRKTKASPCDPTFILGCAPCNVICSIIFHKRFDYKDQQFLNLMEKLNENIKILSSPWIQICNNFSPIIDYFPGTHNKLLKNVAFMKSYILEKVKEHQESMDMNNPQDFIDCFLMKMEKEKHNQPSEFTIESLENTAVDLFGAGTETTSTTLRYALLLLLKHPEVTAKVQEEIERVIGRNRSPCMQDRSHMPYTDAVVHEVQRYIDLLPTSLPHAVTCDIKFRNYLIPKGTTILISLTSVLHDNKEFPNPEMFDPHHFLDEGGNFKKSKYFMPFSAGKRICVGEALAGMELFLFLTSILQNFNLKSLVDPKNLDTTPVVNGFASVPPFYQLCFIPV
Chain of Voltage-gated inwardly rectifying potassium channel KCNH2 (Q12809 whole entry): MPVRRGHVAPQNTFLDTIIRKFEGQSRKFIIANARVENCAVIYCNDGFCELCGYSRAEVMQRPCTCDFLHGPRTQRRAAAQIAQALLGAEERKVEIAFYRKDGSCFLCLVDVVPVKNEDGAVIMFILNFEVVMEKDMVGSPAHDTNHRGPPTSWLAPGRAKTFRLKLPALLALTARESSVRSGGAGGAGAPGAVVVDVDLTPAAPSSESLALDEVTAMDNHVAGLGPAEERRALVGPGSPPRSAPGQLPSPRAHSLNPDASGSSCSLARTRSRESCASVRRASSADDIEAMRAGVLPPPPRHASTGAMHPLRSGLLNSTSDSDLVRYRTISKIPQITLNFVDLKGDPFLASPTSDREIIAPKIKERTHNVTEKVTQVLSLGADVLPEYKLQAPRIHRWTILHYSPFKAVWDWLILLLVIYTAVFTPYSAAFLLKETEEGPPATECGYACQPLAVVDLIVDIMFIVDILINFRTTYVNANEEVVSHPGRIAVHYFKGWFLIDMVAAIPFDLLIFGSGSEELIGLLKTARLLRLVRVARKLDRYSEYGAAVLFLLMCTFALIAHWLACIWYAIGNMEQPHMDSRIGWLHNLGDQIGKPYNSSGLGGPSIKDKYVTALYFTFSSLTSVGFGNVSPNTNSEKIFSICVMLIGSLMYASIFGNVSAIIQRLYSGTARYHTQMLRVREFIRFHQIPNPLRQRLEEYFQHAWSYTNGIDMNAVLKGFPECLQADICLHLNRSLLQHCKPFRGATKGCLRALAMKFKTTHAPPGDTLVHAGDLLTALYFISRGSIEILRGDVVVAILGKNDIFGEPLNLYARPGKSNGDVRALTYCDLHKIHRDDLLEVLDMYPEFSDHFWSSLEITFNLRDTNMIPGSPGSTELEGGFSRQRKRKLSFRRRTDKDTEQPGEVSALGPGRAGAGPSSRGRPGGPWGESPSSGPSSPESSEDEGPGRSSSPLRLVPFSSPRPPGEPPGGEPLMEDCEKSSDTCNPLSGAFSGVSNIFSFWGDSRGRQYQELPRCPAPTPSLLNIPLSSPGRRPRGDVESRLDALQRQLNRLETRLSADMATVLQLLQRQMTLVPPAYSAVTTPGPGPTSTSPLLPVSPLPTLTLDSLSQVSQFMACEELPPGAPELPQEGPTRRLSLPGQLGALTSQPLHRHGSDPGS

Question: Which results are given for OC[C@H]1O[C@@H](O[C@@H]2OC=C[C@H]3[C@H](O)[C@@H]4O[C@]4(COc4ccc(C(F)(F)F)cc4)[C@@H]23)[C@H](O)[C@@H](O)[C@@H]1O?
Answer: inhibition [1]: Active; Exhibited Pronounced Therapeutic Effect Compared To Catal-Pol; CLint scaled [2]: < 38 mL/min/kg; inhibition [3]: Dose-dependent-effect; inhibition at 10 min [4]: 8%; AUC(0-t) at 24 h [5]: 1820 ng·h/mL; Activity [6]: 31.27%; viability at 50 µM [7]: 72%; inhibition [8]: Active; Activity [9]: Active; inhibition [10]: Active; inhibition [11]: Active; viability at 5 µM [12]: 64.6%; MRT last at 24 h [13]: 31.2 min; inhibition [14]: Active; inhibition at 10 min [15]: 10.2%; MRT last at 24 h [16]: 146 min; inhibition [17]: Dose-dependent-effect; Restored Anp Level To Physiological Level; Tmax [18]: 4.98 min; inhibition (INH) [19]: Not_active; Activity [20]: Non-toxic; inhibition at 10 min [21]: 6.3%; inhibition [22]: Active; Cmax [23]: 505 ng/mL; inhibition [24]: Active; inhibition at 10 min [25]: 4.3%; inhibition [26]: Dose-dependent-effect; Activity [27]: Active; Exhibited Superior Protective Efficacy Than Catal-Pol; inhibition [28]: Dose-dependent-effect
